Source: patent US20230107216A1, “PANTETHEINE DERIVATIVES AND USES THEREOF” (Comet Therapeutics, Inc., priority 2018, published 2023)
Read-outs that look alike come from different tables or passages of the source.

Experiments:
HepG2 cells = test: Glucose uptake (Glucose Uptake-Glo); format: cell-based; details: Homo sapiens, read-out: % increase in Glucose Uptake
[1] = system: monocyte-derived M1 macrophages; test: M1 differentiation assay (macrophage TNFα, IL6, IL10 ELISA, FACS); format: cell-based, human; details: for inhibition at 10 µM / inhibition at 50 µM / activation at 10 µM / activation at 50 µM: Homo sapiens, Macrophage; for activation at 10 µM / activation at 50 µM: read-out: % Increase in IL-10 Secretion
Outline: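 CD14+ human blood monocytes (100,000) differentiated 6 days with 10 ng/ml GM-CSF plus compound at 10 or 50 μM, refreshed days 2 and 4. Matured 24 h with GM-CSF, IFNγ, LPS plus compound. Supernatant TNFα, IL6, IL10 by ELISA; FACS M1 phenotype CD86+CD68+CD163−.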

[2] = system: Venular Endothelial cells (HUVEC) (4H system); test: BioMAP 4H system (IL-4 and histamine); format: cell-based, human; details: procedure of Example 826; for inhibition at 1 µM / inhibition at 10 µM: Homo sapiens, HUVEC, 24 h
[3] = 10 uM, read-out: % decrease in Macrophage TNFα Secretion
[4] = 50 uM, read-out: % decrease in Macrophage IL-6 Secretion
[5] = 10 uM, read-out: % decrease in Macrophage IL-6 Secretion
[6] = 1 uM, read-out: % decrease in VEGFRII
[7] = 10 uM, read-out: % decrease in VEGFRII
[8] = 1 uM, read-out: % decrease in E-Selectin

CC(C)(CO)[C@@H](O)C(=O)NCCC(=O)NCCSC(=O)CCC(=O)O [Compound 1, (R)-4-((2-(3-(2,4-dihydroxy-3,3-dimethylbutanamido)propanamido)ethyl)thio)-4-oxobutanoic acid]
activation at 10 µM (HepG2 cells): ≥ 30%

COC(=O)CCC(=O)SCCNC(=O)CCNC(=O)[C@H](O)C(C)(C)CO [Compound 4, Methyl (R)-4-((2-(3-(2,4-dihydroxy-3,3-dimethylbutanamido)propanamido)ethyl)thio)-4-oxobutanoate]
inhibition at 10 µM [1, 3]: ≥ 30%

CC(C)=CC(=O)SCCNC(=O)CCNC(=O)[C@H](O)C(C)(C)CO [Compound 37, S-2-{3-[(R)-2,4-dihydroxy-3,3-dimethylbutyrylamino]propionylamino}ethyl 3-methyl-2-butenethioate]
% decrease in IL-10 Secretion ([1]; 10 uM): ≥30%
inhibition at 10 µM [1, 3]: ≥ 30%
inhibition at 50 µM [1, 4]: ≥ 30%

CC(C)(CO)[C@@H](O)C(=O)NCCC(=O)NCCSC(=O)CC(O)C(=O)O (stereo partly shown) [Compound 39]
% Increase in Live Macrophage Cells ([1]; 10 uM): ≥20%
activation at 10 µM ([1]; 10 uM): ≥ 30%
inhibition at 10 µM [1, 5]: ≥ 30%
inhibition at 10 µM [1, 3]: ≥ 30%

CC(C)(CO)[C@@H](O)C(=O)NCCC(=O)NCCSC(CC(=O)OCC[N+](C)(C)C)C(=O)O (stereo partly drawn) [Compound 51, [2-([3-carboxy-3-[(2-[3-[(2R)-2,4-dihydroxy-3,3-dimethylbutanamido]propanamido]ethyl)sulfanyl]propanoyl]oxy)ethyl]trimethylazanium]
activation at 10 µM (HepG2 cells): ≥ 30%

COC(=O)/C=C/C(=O)SCCNC(=O)CCNC(=O)[C@H](O)C(C)(C)COP(=O)(O)O [Compound 73, methyl (R,E)-4-((2-(3-(2-hydroxy-3,3-dimethyl-4-(phosphonooxy)butanamido)propanamido)ethyl)thio)-4-oxobut-2-enoate]
inhibition at 10 µM [1, 3]: ≥ 30%
inhibition at 50 µM [1, 4]: ≥ 30%

C/C=C/C(=O)SCCNC(=O)CCNC(=O)[C@H](O)C(C)(C)COP(=O)(O)O [Compound 82, (R)—S-(2-(3-(2-hydroxy-3,3-dimethyl-4-(phosphonooxy)butanamido)propanamido)ethyl) (E)-but-2-enethioate]
inhibition at 10 µM [1, 3]: ≥ 30%
inhibition at 50 µM [1, 4]: ≥ 30%

COC(=O)CCC(=O)SCCNC(=O)CCNC(=O)[C@H](O)C(C)(C)COC(C)=O [Compound 138]
inhibition at 1 µM [2, 6]: ≥ 20%

COC(=O)CC(SCCNC(=O)CCNC(=O)[C@H](O)C(C)(C)COC(C)=O)C(=O)OC (stereo partly drawn) [Compound 149, 1,4-dimethyl 2-[(2-[3-[(2R)-4-(acetyloxy)-2-hydroxy-3,3-dimethylbutanamido]propanamido]ethyl)sulfanyl]butanedioate]
% increase in VEGRII ([2]; 10 uM): ≥10%
inhibition at 10 µM ([2]; 10 uM, read-out: % decrease in E-Selectin): ≥ 10%

CC(C)(CO)[C@@H](O)C(=O)NCCC(=O)NCCSC(=O)CCCN [Compound 370, (2R)—N-[2-([2-[(4-aminobutanoyl)sulfanyl]ethyl]carbamoyl)ethyl]-2,4-dihydroxy-3,3-dimethylbutanamide]
activation at 50 µM (HepG2 cells): ≥ 30%

CC(C)(CO)[C@@H](O)C(=O)NCCC(=O)NCCSC(=O)[C@@H](N)Cc1ccc(O)c(O)c1 [Compound 371, (2R)—N-[2-[(2-[[(2S)-2-amino-3-(3,4-dihydroxyphenyl)propanoyl]sulfanyl]ethyl)carbamoyl]ethyl]-2,4-dihydroxy-3,3-dimethylbutanamide]
activation at 10 µM (HepG2 cells): ≥ 30%
inhibition at 10 µM [2, 7]: ≥ 10%

CCCCCCC(=O)SCCNC(=O)CCNC(=O)[C@H](O)C(C)(C)CO [Compound 372, (2R)—N-(2-[[2-(heptanoylsulfanyl)ethyl]carbamoyl]ethyl)-2,4-dihydroxy-3,3-dimethylbutanamide]
inhibition at 1 µM [2, 8]: ≥ 10%

COC(=O)C(C)C(=O)SCCNC(=O)CCNC(=O)[C@H](O)C(C)(C)CO (stereo partly shown) [Compound 405]
% decrease in IL-10 Secretion ([1]; 50 uM): ≥30%
% decrease in Live Macrophage Cells ([1]; 50 uM): ≥20%
activation at 10 µM ([1]; 10 uM): ≥ 30%
inhibition at 10 µM [1, 5]: ≥ 30%
inhibition at 10 µM [1, 3]: ≥ 30%

COC(=O)CC[C@H](N)C(=O)SCCNC(=O)CCNC(=O)[C@H](O)C(C)(C)CO [Compound 411]
% decrease in Live Macrophage Cells ([1]; 50 uM): ≥20%
inhibition at 10 µM [1, 3]: ≥ 30%

CC(=O)SCCNC(=O)CCNC(=O)[C@H](O)C(C)(C)COC(=O)[C@@H](N)Cc1ccc(O)c(O)c1 [Compound 498, (3R)-3-[(2-[[2-(acetylsulfanyl)ethyl]carbamoyl]ethyl)carbamoyl]-3-hydroxy-2,2-dimethylpropyl (2S)-2-amino-3-(3,4-dihydroxyphenyl)propanoate]
activation at 50 µM (HepG2 cells): ≥ 10%
inhibition at 1 µM [2, 8]: ≥ 10%
inhibition at 10 µM [2, 7]: ≥ 10%

CC(=O)SCCNC(=O)CCNC(=O)[C@H](O)C(C)(C)COC(=O)[C@H](C)N [Compound 502, (3R)-3-[(2-[[2-(acetylsulfanyl)ethyl]carbamoyl]ethyl)carbamoyl]-3-hydroxy-2,2-dimethylpropyl (2S)-2-aminopropanoate]
inhibition at 10 µM [2, 7]: ≥ 10%

CC(C)(CO)[C@@H](O)C(=O)NCCC(=O)NCCSC(=O)C1CCC(=O)N1 (stereo partly drawn) [Compound 1227, S-2-{3-[(R)-2,4-dihydroxy-3,3-dimethylbutyrylamino]propionylamino}ethyl 5-oxo-2-pyrrolidinecarbothioate]
activation at 10 µM ([1]; 10 uM): ≥ 30%
inhibition at 10 µM [1, 3]: ≥ 30%

CC(C)C(=O)CC(=O)SCCNC(=O)CCNC(=O)[C@H](O)C(C)(C)CO [Compound 1239, (R)—S-(2-(3-(2,4-dihydroxy-3,3-dimethylbutanamido)propanamido)ethyl) 4-methyl-3-oxopentanethioate]
% Increase in Live Macrophage Cells ([1]; 10 uM): ≥20%
activation at 10 µM ([1]; 10 uM): ≥ 30%
inhibition at 10 µM [1, 5]: ≥ 30%
inhibition at 10 µM [1, 3]: ≥ 30%

CCC(C)C(=O)CC(=O)SCCNC(=O)CCNC(=O)[C@H](O)C(C)(C)CO (stereo partly drawn) [Compound 1240, S-(2-(3-((R)-2,4-dihydroxy-3,3-dimethylbutanamido)propanamido)ethyl) 4-methyl-3-oxohexanethioate]
% Increase in Live Macrophage Cells ([1]; 10 uM): ≥20%
inhibition at 10 µM [1, 5]: ≥ 30%
inhibition at 10 µM [1, 3]: ≥ 30%
activation at 50 µM ([1]; 50 uM): ≥ 30%

C[C@H](CC(=O)SCCNC(=O)CCNC(=O)[C@H](O)C(C)(C)CO)OC(=O)CCC(=O)O [Compound 1243, 4-{[(2R)-4-[(2-{3-[(2R)-2,4-dihydroxy-3,3-dimethylbutanamido]propanamido}ethyl)sulfanyl]-4-oxobutan-2-yl]oxy}-4-oxobutanoic acid]
inhibition at 10 µM [1, 3]: ≥ 30%

CC(C(=O)SCCNC(=O)CCNC(=O)[C@H](O)C(C)(C)CO)[C@@H](C)O (stereo partly drawn) [Compound 1244, (2R)-2,4-dihydroxy-N-{2-[(2-{[(3R)-3-hydroxy-2-methylbutanoyl]sulfanyl}ethyl)carbamoyl]ethyl}-3,3-dimethylbutanamide]
inhibition at 10 µM [1, 5]: ≥ 30%
inhibition at 10 µM [1, 3]: ≥ 30%

CC1(CC(=O)SCCNC(=O)CCNC(=O)[C@H](O)C(C)(C)CO)OCCO1 [Compound 1252, (R)—S-(2-(3-(2,4-dihydroxy-3,3-dimethylbutanamido)propanamido)ethyl)-2-(2-methyl-1,3-dioxolan-2-yl)ethanethioate]
% decrease in Live Macrophage Cells ([1]; 50 uM): ≥20%
inhibition at 10 µM [1, 5]: ≥ 30%
inhibition at 10 µM [1, 3]: ≥ 30%
activation at 50 µM ([1]; 50 uM): ≥ 30%

COC(=O)CCC(=O)SCCNC(=O)CCNC(=O)[C@H](OC(=O)CN)C(C)(C)CO [Compound 1294, methyl 4-[(2-[3-[(2R)-2-[(2-aminoacetyl)oxy]-4-hydroxy-3,3-dimethylbutanamido]propanamido]ethyl)sulfanyl]-4-oxobutanoate]
activation at 10 µM (HepG2 cells): ≥ 30%
% decrease in MCP-1 ([2]; 1 uM): ≥10%

COC(=O)CCC(=O)SCCNC(=O)CCNC(=O)[C@H](OC(=O)CNC(C)=O)C(C)(C)CO [Compound 1298, methyl 4-[(2-[3-[(2R)-2-[(2-acetamidoacetyl)oxy]-4-hydroxy-3,3-dimethylbutanamido]propanamido]ethyl)sulfanyl]-4-oxobutanoate]
activation at 50 µM (HepG2 cells): ≥ 20%
% decrease in Eotaxin-3 ([2]; 1 uM): ≥10%
% decrease in MCP-1 ([2]; 1 uM): ≥10%
inhibition at 1 µM [2, 6]: ≥ 10%

CC(C)(CO)[C@@H](O)C(=O)NCCC(=O)NCCSC(=O)CCCO [Compound 1304, (2R)-2,4-dihydroxy-N-[2-([2-[(4-hydroxybutanoyl)sulfanyl]ethyl]carbamoyl)ethyl]-3,3-dimethylbutanamide]
activation at 10 µM (HepG2 cells): ≥ 20%

C[C@H](O)CC(=O)CC(=O)SCCNC(=O)CCNC(=O)[C@H](O)C(C)(C)CO [Compound 1306, (2R)-2,4-dihydroxy-N-[2-[(2-[[(5S)-5-hydroxy-3-oxohexanoyl]sulfanyl]ethyl)carbamoyl]ethyl]-3,3-dimethylbutanamide]
activation at 10 µM (HepG2 cells): ≥ 30%

CC(C)(COC(=O)CCC(=O)O)[C@@H](O)C(=O)NCCC(=O)NCCS [Compound 1310, (R)-4-(3-hydroxy-4-((3-((2-mercaptoethyl)amino)-3-oxopropyl)amino)-2,2-dimethyl-4-oxobutoxy)-4-oxobutanoic acid]
inhibition at 10 µM [1, 5]: ≥ 30%
inhibition at 10 µM [1, 3]: ≥ 30%
activation at 50 µM ([1]; 50 uM): ≥ 30%

CC(C)(CO)[C@@H](OC(=O)CCC(=O)O)C(=O)NCCC(=O)NCCS [Compound 1311, (R)-4-((4-hydroxy-1-((3-((2-mercaptoethyl)amino)-3-oxopropyl)amino)-3,3-dimethyl-1-oxobutan-2-yl)oxy)-4-oxobutanoic acid]
% decrease in IL-10 Secretion ([1]; 50 uM): ≥30%
inhibition at 10 µM [1, 5]: ≥ 30%
inhibition at 10 µM [1, 3]: ≥ 30%
activation at 50 µM ([1]; 50 uM): ≥ 30%
